Experiment: Plasma OA/SA ratio in DELIS trial patients (fatty acid composition of plasma)
Assay type: in vivo, human
Details: for OA/SA ratio in plasma, Average: statin base drug
Description: The ratio of oleic acid (OA) to stearic acid (SA) in plasma can be calculated by collecting blood from a patient and measuring the levels of the individual fatty acids such as OA and SA or the ratio of the individual fatty acids in the total fatty acids by, for example, gas chromatography. The OA/SA ratio can be also calculated from the individual fatty acid levels obtained by performing a clinical test item, that is, fractionation of fatty acids in total lipids which can be performed by, for example, SRL, Inc. The measurement method and calculation method are not particularly limited. The fatty acid fractionation into 24 fractions is a testing method which involves fractionating fatty acids including unsaturated fatty acids into specific 24 fractions and quantitatively determining the fractions by gas chromatography. More specifically, the plasma fatty acids are extracted by the method of, for example, Folch et al. (Folch J. et al., J. Biol. Chem. 226, 497-509 (1957)). It is possible to use tricosanoic acid (C23:0) as an internal standard, to convert each fatty acid into a methyl ester by addition of boron trifluoride and methanol, and to quantitatively determine the methyl ester of each fatty acid by measurement using a gas chromatograph such as SHIMAZU GC-17A (Shimadzu Corporation) and a capillary column such as BPX70 (with an internal diameter of 0.25 mm and a length of 30 m; SGE International Ltd.). However, this is not the sole method of the invention. This trial corresponds to a partial analysis of the results obtained in DELIS (Japan EPA Lipid Intervention Study) which is a large scale clinical trial of high purity EPA preparation which was presented in the American College of Cardiology 2005 Annual Meeting (for general information on DELIS, see Lancet, vol. 369, pp. 1090-1098 (2007)). […]

CC/C=C\C/C=C\C/C=C\C/C=C\C/C=C\CCCC(=O)OCC [EPA-E, ethyl icosapentate]
change of OA/SA ratio in plasma (after the administration of EPA-E): significant decrease
OA/SA ratio in plasma, Average (before start of trial): 2.96
OA/SA ratio in plasma, Average (during whole observation period, Epadel 600 mg 3 times a day oral): 2.78

Source: patent publication US20110118350A1, “COMPOSITION FOR PREVENTING CARDIOVASCULAR EVENT IN HIGH-RISK PATIENT” (MOCHIDA PHARMACEUTICAL CO., LTD., priority 2008, published 2011)
